Where two headings read alike, the source gives them in different places.
Key:
Assay type in all cases: in vivo
[1] = Pharmacokinetic properties in C57 male mice, single dose (plasma, LC-MS/MS); settings: for AUC(0-inf): read-out: Area under the drug-time curve AUC0-inf; for AUC(0-t): read-out: Area under the drug-time curve AUC0-t; for MRT: read-out: Mean residence time MRTPO; for half-life: read-out: Terminal elimination half-life t1/2 (converted); for bioavailability: read-out: Bioavailability F; for Cmax: read-out: Drug peak concentration Cmax; for Tmax: read-out: Time to peak tmax
Description: 1. Test of the pharmacokinetic properties of compound (−)-I-10 administered to C57 male mice by single intragastric administration, intraperitoneal injection and intravenous injection
Compound (−)-I-10 was administered in a single dose in C57 male mice, and then blood samples were collected at different time points, the concentration of the compound in mouse plasma was determined by LC-MS/MS and the relevant pharmacokinetic parameters were calculated to investigate the pharmacokinetics of the compound in the mice.
27 male C57 mice were provided by Suzhou Zhaoyan Experimental Animal Co., Ltd., and the experiment was carried out according to Table 4 below.
0.030 mL of blood was taken from each animal through the orbit each time and anticoagulated with EDTA-K2, and the collection time points were: 0, 5, 15, 30 min, 1, 2, 4, 6, 8, 24 h after administration of the test substance. Blood samples were placed on ice after collection, and the plasma was separated by centrifugation within 30 minutes (centrifugation conditions: 5000 rpm, 10 minutes, 4° C.) and stored at −80° C. until analysis.
Data acquisition and control system software was Analyst 1.5.1 software (Applied Biosystem). The sample peak integration method of the spectrum was automatic integration; the ratio of the peak area of the sample to the peak area of the internal standard was used as an index, and regression was performed with the concentration of the sample. Regression method: linear regression with a weight factor of 1/X2. Pharmacokinetic parameters were analyzed using WinNonlin Professional v6.3 (Pharsight, USA) using non-compartmental models. Cmax was the measured maximum drug concentration in blood, the area under the drug concentration in blood-time curve AUC (0→t) was calculated by the trapezoidal method, and Tmax was the time to peak of the drug concentration in blood after administration. The experimental data were expressed by “mean=standard deviation” (Mean±[…], n≥3) or “mean” (Mean, n=2).

[2] = test system: C57B6 male mice; test: Open field athletic ability test, MK801-induced hyperkinesia; settings: for 45 minutes moving distance: n=8
Description: Experimental method: The experimental animals were C57B6 male mice, n=8 in each group. This model used C57B6 mice as experimental animals. The behavioral representation of hyperkinesia in open field environment in mice was induced by acute injection of NMDA antagonist MK801 and modeled to test the inhibitory effect of different compounds on hyperkinesia phenotype induced by MK801. All mouse behavior experiments were carried out during the light period of the mice, and the whole experiment was recorded by the camera and automatic tracking and data statistics were carried out by behavioral tracking software. The compound was administered by intraperitoneal injection. Immediately after the injection, the mice entered the open field and their movement trajectories began to record. After 30 minutes, the mice received 0.2 mg/kg of MK801 by intraperitoneal injection and returned to the open field immediately after administration and the movement trajectories were further recorded for 120 min. The accumulative moving distance of the mice was counted at a data sampling point every five minutes. Data statistics were carried out using Student-t-test, p<0.05 was *, p<0.01 was **, p<0.001 was ***, p<0.0001 was ****. The total moving distance of the mice in 0-45 minutes under the combined action of different doses of (−)-I-10 and MK801 (0.2 mg/kg) is shown in Table 7.

[3] = test system: C57B6 male mice; test: Tail suspension experiment after 5 h restraint (depression-like behavior); settings: for Immobility time, tail suspension experiment: restraint for five hours
Description: The experimental animals were C57B6 male mice, n=8 in each group. Firstly, the C57B6 mice were induced to develop depression-related behavioral representations by restraining the mice for 5 hours, and then the effects of the compounds on their “depression-like” behaviors were determined by tail suspension and forced swimming experiments. The specific experimental procedure was as follows. First, the mice were restrained using a mouse fixator for tail vein injection. During the restraint process, all behavioral abilities of the mice were restricted under the condition of ensuring minimal pain to the mice. The mice were administered intraperitoneally once before and after restraint, respectively. After the restraint, the mice returned to the cage to recover for 30 minutes. After the 30 minutes, the mice in different groups were subjected to tail suspension or forced swimming to detect their “depression-like” behavior, respectively.
Tail suspension experiment: the tip of the tail of the mouse was fixed on the suspension rod of the iron stand by adhesive tape, and the mouse remained in the hanging position for 6 minutes. The first 2 minutes was the adaptation period, and no data collection was performed, and the time of the intermittent immobility behavior of the mouse was recorded in the next 4 minutes. The duration of this immobility state was used to measure the degree of behavioral despair in the mouse. Data statistics were carried out using Student-t-test, p<0.05 was *, p<0.01 was **, p<0.001 was ***, p<0.0001 was ****.

[4] = test system: C57B6 male mice; test: Freezing behavior test; settings: 10 mg/kg
Description: Experimental method: The experimental animals were C57B6 male mice, n=8 in each group. Mice were first injected with different compounds, and after a certain period of time (30 min or 60 min), the mice were in an upright and unnatural state by placing their forelimbs on a high glass hanging rod (about 5 cm from the ground). Then the time for the mice to maintain this state was measured, and the length of time was used to determine the freezing effect of the drug on the mice.

[5] = mouse, plasma, intravenous injection 1 mg/kg
[6] = mouse, plasma, ip, intraperitoneal injection 1 mg/kg
[7] = mouse, plasma, oral administration 5 mg/kg

In the case of `CN(C)C(=O)N[C@H]1CC[C@H](CCN2CCN3c4cccc5[nH]cc(c45)C[C@H]3C2)CC1` [(−)-I-10], the “pharmacokinetic properties (in words)” value [1] is reported as “good pharmacokinetic properties”, the “Terminal elimination rate Kel” value ([1]; intraperitoneal injection 1 mg/kg) is reported as 0.886 h⁻¹ and the “Terminal elimination rate Kel” value ([1]; intravenous injection 1 mg/kg) is reported as 0.805 h⁻¹. It also gave a Vd ([1]; mouse, plasma, intravenous injection 1 mg/kg, read-out: Apparent volume of distribution Vdss) of 4.86 L/kg, an AUC(0-inf) [1, 5] of 215 ng·h/mL and an AUC(0-t) [1, 5] of 211 ng·h/mL. It also gave a clearance ([1]; mouse, plasma, intravenous injection 1 mg/kg, read-out: Clearance CL) of 77.6 mL/min/kg, an MRT [1, 5] of 62.4 min and a half-life [1, 5] of 51.7 min. The AUC(0-inf) [1, 6] was 175 ng·h/mL, the AUC(0-t) [1, 6] was 172 ng·h/mL and the bioavailability [1, 6] was 81.4%. The Cmax [1, 6] was 271 ng/mL, the MRT [1, 6] was 46.2 min and the half-life [1, 6] was 46.9 min. For the same compound, the Tmax [1, 6] was 5 min, the AUC(0-inf) [1, 7] was 596 ng·h/mL and the AUC(0-t) [1, 7] was 591 ng·h/mL. The bioavailability [1, 7] was 55.9%, the Cmax [1, 7] was 558 ng/mL and the MRT [1, 7] was 89.4 min. For the same compound, the half-life [1, 7] was 69 min, the Tmax [1, 7] was 5 min and the “Terminal elimination rate Kel” value ([1]; oral administration 5 mg/kg) was 0.604 h⁻¹. For the same compound, the “inhibition of the improvement of athletic ability induced by MK801 (in words)” value ([2]; 0.4/0.1/0.025 mg/kg) was “significantly inhibit”, the “45 minutes moving distance” value ([2]; MK801 (0.2 mg/kg) + 0.00625 mg/kg intraperitoneal) was 11626 cm and the “45 minutes moving distance” value ([2]; MK801 (0.2 mg/kg) + 0.025 mg/kg intraperitoneal) was 8643 cm. For the same compound, the “45 minutes moving distance” value ([2]; MK801 (0.2 mg/kg) + 0.1 mg/kg intraperitoneal) was 3833 cm, the “45 minutes moving distance” value ([2]; MK801 (0.2 mg/kg) + 0.4 mg/kg intraperitoneal) was 2644 cm and the “inhibition of restraint-induced depression-like behavior (in words)” value ([3]; 0.4 mg/kg and 0.1 mg/kg, tail suspension and forced swimming) was “significantly inhibit”. The “Immobility time, tail suspension experiment” value (shortened to “Immobility time”) ([3]; 0.00625 mg/kg intraperitoneal) was 132.6 s, the “Immobility time” value ([3]; 0.025 mg/kg intraperitoneal) was 101.8 s and the “Immobility time” value ([3]; 0.1 mg/kg intraperitoneal) was 90.31 s. The “Immobility time” value ([3]; 0.4 mg/kg intraperitoneal) was 72.66 s, the “freezing induction effect on mice (in words)” value [4] was “no freezing induction effect” and the Freezing time ([4]; 30 minutes after administration) was 2.194 ± 0.2524 s. It also gave a Freezing time ([4]; 60 minutes after administration) of 2.165 ± 0.3256 s.
